{"source": "patent US9636419B2", "about": "“Targeting multiple receptors on a cell surface for specific cell targeting” (The University of Kansas, priority 2013, dated 2017)", "key": {"PC3-PSMA cells": {"system": "PC3-PSMA cells", "assay": "Binding, uptake and co-localization of fluorophore-labeled aptamers (confocal microscopy, flow cytometry)", "assay_type": "cell-based", "conditions": "for internalization by cells: AF488-A9, DY650-E07; for colocalization in endosomes: aptamers combined, co-incubation 1 h", "method": "To create targeted binary cytotoxins that selectively kill PSMA+/EGFR+ prostate cancer cells, the agents both accumulate in the same endosomal compartments.\nPanels B-D show fluorescence micrographs of AF488-labled anti-PSMA apamer (Panel B) and a Dy650-labeled anti-EGFR aptamer (Panel C) following co-incubation with PC3-PSMA cells for 1 h. […] The binary agents are designed to selectively kill PSMA+/EGFR+ prostate cancer cells through the mechanism proposed here both accumulate in common endosomal compartments."}, "[1]": {"system": "SKBR3 breast cancer cells", "description": "Cellular viability was analyzed by flow cytometry after 72 h."}, "[2]": {"system": "SKBR3 breast cancer cells", "assay": "Release of disulfide-linked fluorophore from EGF or Herceptin conjugates, confocal microscopy", "assay_type": "cell-based", "conditions": "fluorophore linked via disulfide to Herceptin or EGF, ED86 at 10-fold higher concentration", "method": "In the middle panels, a non-targeted endosome disruptive peptide (ED86) was added. In the bottom panels, a targeted cholesterol modified endosome disruptive peptide (ED108) was added. […] In conjunction with our previous studies of disulfide-linked colchinol conjugates (see provisional application), these studies provide evidence that targeting of two distinct cell surface entities (e.g., two receptors or a receptor and membrane) with a cytotoxic conjugate and an endosome disruptive peptide can confer a synthetic lethal-type effect against cancer cell lines."}}, "note": "Entries after “also recorded” stand apart in the source; their conditions may differ. Non-standard residues stand in square brackets, D forms with d. *: point of attachment. Cholesteryloxycarbonyl = CC(C)CCC[C@@H](C)[C@H]1CC[C@H]2[C@@H]3CC=C4C[C@@H](OC(=O)*)CC[C@]4(C)[C@H]3CC[C@]12C; mPEG = not defined here; Aib = CC(C)(N)C(=O)O; βAla = NCCC(=O)O"}
{"substance": "A9: PSMA-binding aptamer, 2′F RNA (GGGACCGAAAAAGACCUGACUUCUAUACUAAGUCUACGUUCCC; 2'-fluoro modified RNA, pattern not given here) [Compound A9]", "values": [{"measurement": "internalization by cells", "setting": "PC3-PSMA cells", "value": "internalized by PC3-PSMA cells"}, {"measurement": "colocalization in endosomes", "setting": "PC3-PSMA cells", "value": "colocalize in endosomes"}]}
{"substance": "Cholesterol carbamate-(βAla)2-(Glu)2-mPEG-(βAla)4-(Aib)4-(Trp)2-Ala-Trp-Tyr-(Pro)2-Val-Val-CONH2 (Cholesteryloxycarbonyl-[βAla][βAla]EE[mPEG][βAla][βAla][βAla][βAla][Aib][Aib][Aib][Aib]WWAWYPPVV-NH2; reading uncertain) [ED108]", "values": [{"measurement": "effect on cytotoxicity of the Herceptin-colchinol methyl ether disulfide conjugate", "setting": "[1]", "value": "synergistically enhances cytotoxicity"}, {"measurement": "release of disulfide-linked fluorophore into cytoplasm", "setting": "[2]", "value": "Release of the fluorophore from EGF or Herceptin into the cytosol and nucleus was observed; also recorded: release of a disulfide-linked fluorophore from the antibody Herceptin into the cytoplasm"}]}
{"substance": "E07: EGFR-binding aptamer, 2′F RNA (GGACGGAUUUAAUCGCCGUAGAAAGCAUGUCAAAGCCGGAACCGUCC; 2'-fluoro modified RNA, pattern not given here) [Compound E07]", "values": [{"measurement": "internalization by cells", "setting": "PC3-PSMA cells", "value": "internalized by PC3-PSMA cells"}, {"measurement": "colocalization in endosomes", "setting": "PC3-PSMA cells", "value": "colocalize in endosomes"}]}
{"substance": "H2N-(Aib)4-(Trp)2-Ala-Trp-Tyr-(Pro)2-Val-Val-CONH2 (H-[Aib][Aib][Aib][Aib]WWAWYPPVV-NH2; SMILES CC(C)[C@H](NC(=O)[C@@H](NC(=O)[C@@H]1CCCN1C(=O)[C@@H]1CCCN1C(=O)[C@H](Cc1ccc(O)cc1)NC(=O)[C@H](Cc1c[nH]c2ccccc12)NC(=O)[C@H](C)NC(=O)[C@H](Cc1c[nH]c2ccccc12)NC(=O)[C@H](Cc1c[nH]c2ccccc12)NC(=O)C(C)(C)NC(=O)C(C)(C)NC(=O)C(C)(C)NC(=O)C(C)(C)N)C(C)C)C(N)=O) [ED86]", "values": [{"measurement": "release of disulfide-linked fluorophore into cytoplasm", "setting": "[2]", "value": "release was not observed"}]}
